Measured values published in patent publication US7910621B2, “Small molecule antagonists of XIAP family proteins” (The Regents of the University of Michigan, priority 2004, dated 2011).

Target: T1, human XIAP-BIR3 domain (residues 241-356) (Homo sapiens, UniProt P98170)
T1 construct: The human XIAP-BIR3 domain (residues 241-356) fused to His-tag; His-tag (pET-28b); made in house; host or cells: Escherichia coli BL21(DE3)
Test: 15N-HSQC NMR binding confirmation
Conditions: 100 μM protein, 100 μM embelin, 30° C.
Method: To conclusively confirm that embelin binds to the XIAP BIR3 domain where Smac and caspase-9 bind, and to rule out any potential false positive, an analysis using nuclear magnetic resonance (NMR) Heteronuclear Single Quantum Coherence Spectroscopy (HSQC) method was performed. The human XIAP-BIR3 domain (residues 241-356) fused to His-tag was expressed in M9 medium containing ^15N ammonium chloride to uniformly label protein with ^15N and was purified. ^15N HSQC NMR spectra were recorded with embelin and without embelin at 30° C. […]
The NMR experiments were performed on a Varian Inova 500 with pulse field gradient (PFG) HSQC, with the water flip back to maximize the signal intensity and to minimize the destruction from the water signal (see, e.g., Grzesiek, S., et al., J. Am. Chem. Soc. 115, 12593-94 (1993); Sheppard, G. S., et al., Abstr. Pap.-Am. Chem. Soc. 213, 81 (1997)) (300 μM XIAP, 50 mM phosphate buffer pH 7.3, 2 mM DTT at 25° C.). ^15N HSQC NMR spectra were recorded with samples containing 100 μM of the ^15N protein in 50 mM Tris (pH 7.2), 50 μM Zn(Cl)2, 1 mM DTT at 30° C. with 100 μM embelin and without it. […]

T1 sequence (P98170 241-356): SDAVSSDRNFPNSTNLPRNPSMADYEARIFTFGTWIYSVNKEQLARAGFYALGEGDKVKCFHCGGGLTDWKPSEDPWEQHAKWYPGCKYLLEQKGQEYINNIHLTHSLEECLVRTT

Structure (SMILES): CCCCCCCCCCCC1=C(O)C(=O)C=C(O)C1=O [embelin]
- binding site on XIAP BIR3 by 15N HSQC NMR: binds to the surface groove in the XIAP BIR3 domain where Smac and caspase-9 bind
